As a reminder, the IC50 is the concentration at which inhibition is half-maximal. A low value points to greater potency in that assay.

The subject of data set [1] is Trypanosoma brucei rhodesiense. In words: DNDI: Inhibition of Human African Trypanosomiasis (HAT), STIB 900, in vitro. It counts as functional, organism-based.
Data set [2] can be described thus: (§1) DNDI: Cytotoxicity against human MRC-5 lung fibroblast cells. The settings on record: IC50.
A short description of data set [3]: DNDI: Cytotoxicity against L-6 rat myoblasts from skeletal muscle. It counts as toxicity, cell-based, Muscle tissue, L6. The settings on record: L-6 rat skeletal muscle myoblast cells.
Data set [4] has as its system Trypanosoma brucei brucei. Nature of the data set: microbe, parasite or virus in culture. It counts as functional, organism-based, STIB 795.
Description: DNDI: Inhibition of Human African Trypanosomiasis (HAT), STIB 795, in vitro
Another data set relates to Plasmodium falciparum. Nature of the data set: DNDI: Inhibition of the malaria parasite Plasmodium falciparum, in vitro. It counts as functional, organism-based. The following applies: K1.
Another data set deals with Trypanosoma cruzi. Nature of the data set: DNDI: Inhibition of Chagas Disease parasite Trypanosoma cruzi (Tulahuen LacZ, Clone C4), in vitro. It counts as functional, organism-based.
A further data set concerns Leishmania donovani. Nature of the data set: DNDI: Inhibition of formation of Leishmania donovani (strain MHOM/ET/67/L82) axenic amastigotes, in vitro. It counts as functional, organism-based.
Another data set deals with MRC5. Described as §1.

The structures appear in SMILES notation. Where “and” joins values, the source holds several entries; their conditions need not be identical. Equal entries are not always repeated.

`CCc1ccccc1/N=C(\NCCN1CCOCC1)NC(=O)c1ccccc1`: the IC50 is 0.333 µM in data set [1]; over 41.7 µM in data set [2]; 50.3 µM in data set [3]; 0.681 µM in data set [4] (Trypanosoma brucei, STIB 795); 2.02 µM in the data set with Plasmodium falciparum; 31.2 µM in the data set on Trypanosoma cruzi. Moreover, the IC50 in the data set on Leishmania donovani was 83.9 µM.
As for `Cc1ccc(-c2cnc3ccccc3[n+]2C)c(C)c1`, the IC50 in the data set with MRC5 was over 10.4 µM; in data set [2], over 20.8 µM; in data set [4] it was 0.739 µM and 3.32 µM.
`COc1ccc(C(NC(=O)C(C)C)c2ccc3cccnc3c2O)cc1OC` (centres undefined): the half-maximal inhibitory concentration (IC50) in the data set on MRC5 is over 4.17 µM; in data set [2], 2.29 µM; in data set [4], 2.78 µM and 1.08 µM.
As for `CC1=NN(c2cccc(Cl)c2)C(=O)/C1=C\NNC(=O)c1ccccc1`, the IC50 was 4.6 µM with MRC5; over 4.17 µM in data set [2]; 1.92 µM in data set [4]; 1.49 µM in data set [4] (Trypanosoma brucei, STIB 795).
Taken in the same sequence, the figures for `Cc1ccc2[nH]c3c(c2c1)CCCC3CN` (centres undefined) were over 20.8 µM, over 10.4 µM, 0.664 µM and 1.22 µM.
The corresponding values for `COc1ccc2[nH]c(C)c(CCNCCC3=C(C)CCCC3(C)C)c2c1` are 4.92 µM, 5.93 µM, 1.76 µM and 1.33 µM.
`O=C(NCCc1n[nH]c(-c2ccc(F)cc2)n1)c1cccc(F)c1`: the IC50 is 2.22 µM in data set [1]; over 41.7 µM in data set [2]; 39.2 µM in data set [3]; 1.93 µM in data set [4] (Trypanosoma brucei, STIB 795); 7.85 µM with Plasmodium falciparum; 6.35 µM with Trypanosoma cruzi. Further, in the data set on Leishmania donovani, the IC50 is 15.5 µM.
In the case of `CCS(=O)(=O)N1CCCc2ccc(NS(=O)(=O)c3ccccc3F)cc21`, the IC50 is 5.81 µM in data set [1]; over 41.7 µM in data set [2]; 8.64 µM in data set [3]; 1.3 µM in data set [4] (Trypanosoma brucei, STIB 795); 5.02 µM with Plasmodium falciparum; 5.87 µM in the data set with Trypanosoma cruzi. The same compound had an IC50 with Leishmania donovani of 2.63 µM.
Turning to `CC(C)(C)C(=O)NCCc1csc(-c2cccc(F)c2)n1`, the IC50 in data set [1] is 0.451 µM; in data set [2] it was over 41.7 µM; in data set [3], 19.1 µM; in data set [4] (Trypanosoma brucei, STIB 795), 0.441 µM; in the data set with Plasmodium falciparum, 10.8 µM; in the data set with Trypanosoma cruzi, 0.709 µM. The compound further showed an IC50 in the data set with Leishmania donovani of 14.1 µM.
For the compound `Cc1cc(=O)[nH]c(-n2nc(C)cc2NC(=O)C2CCCC2)n1`, the IC50 in data set [1] was 1.42 µM; in data set [2], over 10.4 µM; in data set [3] it was 0.265 µM; in data set [4] (Trypanosoma brucei, STIB 795), 0.435 µM; in the data set on Plasmodium falciparum, 2.39 µM; in the data set on Trypanosoma cruzi, 4.5 µM. The same compound had an IC50 in the data set with Leishmania donovani of 0.143 µM.
Consider `O=C(CCc1ccccc1)N/N=C/c1ccc(O)c2ncccc12`, for which the IC50 with MRC5 was over 20.8 µM; in data set [2], over 10.4 µM; in data set [4], 0.456 µM; in data set [4] (Trypanosoma brucei, STIB 795), 0.484 µM.
For the compound `CCOC(=O)N1CCN(C2=C(NC(C)=O)C(=O)c3ccccc3C2=O)CC1`, the IC50 in data set [2] was over 41.7 µM; in data set [4] (Trypanosoma brucei, STIB 795) it was 5.36 µM.
In the case of `CCN1C=Cc2ccccc2/C1=C\c1ccc2ccccc2[n+]1CC`, the IC50 in data set [2] is over 4.17 µM; in data set [4] (Trypanosoma brucei, STIB 795) it was 0.086 µM.
Taken in the same sequence, the figures for `Cc1ccccc1C(O)(Cc1ccccc1)C1CN2CCC1CC2` (centres undefined) were over 4.17 µM and 4.69 µM.
The corresponding values for `COc1ccc(N2C(=O)CN(Cc3ccccc3)C2=S)cc1Cl` are over 41.7 µM and 5.49 µM.
`COc1cccc(NC(=O)CSc2cccc3cccnc23)c1`: the IC50 in data set [2] was over 41.7 µM; in data set [4] (Trypanosoma brucei, STIB 795), 5.79 µM.
For `CC(NCCC(c1ccccc1)C1CCOC(C)(C)C1)c1ccccc1` (centres undefined), the IC50 in data set [2] was over 41.7 µM; in data set [4] (Trypanosoma brucei, STIB 795), 4.93 µM.
Taken in the same sequence, the figures for `CC1=NN(C(=O)c2ccccc2O)C(C)(O)C1` (centres undefined) were over 1.04 µM and 0.66 µM.
The corresponding values for `OC12C[C@@H](C3CO[C@@H]1O3)n1nnnc1N2` are over 20.8 µM and 4.84 µM.
As to `N/C(Cc1cccs1)=N\OC(=O)C12CC3CC(CC(C3)C1)C2`, the IC50 is over 20.8 µM in data set [2] and 0.125 µM in data set [4] (Trypanosoma brucei, STIB 795).
Regarding `COC(=O)c1ccc2c(c1)C(C)(C)C(/C=C/c1c(C)[nH]c3ccccc13)=[N+]2C`, the IC50 in data set [2] is over 4.17 µM; in data set [4] (Trypanosoma brucei, STIB 795) it was 2.97 µM.
The corresponding values for `CCC(C)NC(=O)c1nc(-c2ccccc2)cnc1N` (centres undefined) are over 41.7 µM and 0.426 µM.
The corresponding values for `CC1=NN(c2ccc3cccc(O)c3n2)C(=O)C1` are over 10.4 µM and 1.31 µM.
Taken in the same sequence, the figures for `c1ccc(Nc2nc(-c3ccccc3)c3ccccn23)cc1` were over 41.7 µM and 5.38 µM.
Turning to `Fc1ccc(C(CCCN2CCN3CCCCC3C2)c2ccc(F)cc2)cc1` (centres undefined), the IC50 in data set [2] is over 41.7 µM; in data set [4] (Trypanosoma brucei, STIB 795), 5.31 µM.
In the case of `CN1CCN(Nc2ccnc3cc4ccccc4cc23)CC1`, the IC50 turned out to be 3.36 µM in data set [2] and 0.357 µM in data set [4] (Trypanosoma brucei, STIB 795).
Take `O=C(Nc1c2ccccc2nc2ccccc12)c1ccccc1F`: the IC50 in data set [2] is over 4.17 µM; in data set [4] (Trypanosoma brucei, STIB 795), 5.31 µM.

The record behind these values is ChEMBL document CHEMBL2094269, “WEHI/Eskitis Trypanosoma b. brucei screening data”.
